Measured values published in US7879881B2, “Piperidinyl compounds that selectively bind integrins” (Janssen Pharmaceutica NV, priority 2002, dated 2011).

Experiments:
Human αvβ3 = molecular target: T1, Human αvβ3 (Homo sapiens, UniProt P05106+P06756); assay: In Vitro Solid Phase Purified αvβ3 Binding Assay (vitronectin/αvβ3); settings: vitronectin binding to immobilized purified human αvβ3; mean ± spread; read-out: αvβ3IC50
T1 construct: purchased Chemicon International Inc., Temecula, Calif
In short: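 Purified human αvβ3 immobilized at 1 μg/ml in Tris buffer with Ca, Mg and Mn; compounds competed with 2 nM vitronectin for 3 h at 37 °C. Bound vitronectin detected by anti-vitronectin antibody and peroxidase ABC, absorbance at 490 nm.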

human purified αVβ5 = molecular target: T2, human purified αVβ5 (Homo sapiens, UniProt P06756+P18084); assay: In Vitro Solid Phase Purified αcβ5 Binding Assay (vitronectin/αVβ5); settings: vitronectin binding to immobilized purified human αVβ5; mean ± spread; read-out: αvβ5 IC50
T2 construct: purchased Chemicon International, Inc
In short: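 Purified human integrin immobilized at 1 μg/ml in Tris buffer with Ca2+, Mg2+, Mn2+ and NaCl, then BSA-blocked. Compounds added just before 2 nM vitronectin, 3 h at 37 °C. Bound vitronectin detected by anti-vitronectin antibody with biotin/peroxidase (ABC) detection at 490 nm.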

GP IIb/IIIa = GP IIb/IIIa (Homo sapiens, UniProt P05106+P08514); assay: In Vitro Solid Phase Purified GP IIb/IIIa Binding Assay (biotinylated fibrinogen); settings: biotinylated fibrinogen binding to immobilized purified GP IIb/IIIa; mean ± spread; read-out: αIIbβ3 IC50
In short: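 Purified GP IIb/IIIa coated overnight at 4° C, blocked with 5% BSA, then incubated with test compound and biotinylated fibrinogen for 2-4 h at RT in modified Tyrodes buffer. Bound fibrinogen detected with avidin-biotin HRP complex and o-phenylenediamine/H2O2 (citrate/phosphate pH 5.3), stopped with 2 N H2SO4.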

T1 sequence (P06756 31-889 limits assumed): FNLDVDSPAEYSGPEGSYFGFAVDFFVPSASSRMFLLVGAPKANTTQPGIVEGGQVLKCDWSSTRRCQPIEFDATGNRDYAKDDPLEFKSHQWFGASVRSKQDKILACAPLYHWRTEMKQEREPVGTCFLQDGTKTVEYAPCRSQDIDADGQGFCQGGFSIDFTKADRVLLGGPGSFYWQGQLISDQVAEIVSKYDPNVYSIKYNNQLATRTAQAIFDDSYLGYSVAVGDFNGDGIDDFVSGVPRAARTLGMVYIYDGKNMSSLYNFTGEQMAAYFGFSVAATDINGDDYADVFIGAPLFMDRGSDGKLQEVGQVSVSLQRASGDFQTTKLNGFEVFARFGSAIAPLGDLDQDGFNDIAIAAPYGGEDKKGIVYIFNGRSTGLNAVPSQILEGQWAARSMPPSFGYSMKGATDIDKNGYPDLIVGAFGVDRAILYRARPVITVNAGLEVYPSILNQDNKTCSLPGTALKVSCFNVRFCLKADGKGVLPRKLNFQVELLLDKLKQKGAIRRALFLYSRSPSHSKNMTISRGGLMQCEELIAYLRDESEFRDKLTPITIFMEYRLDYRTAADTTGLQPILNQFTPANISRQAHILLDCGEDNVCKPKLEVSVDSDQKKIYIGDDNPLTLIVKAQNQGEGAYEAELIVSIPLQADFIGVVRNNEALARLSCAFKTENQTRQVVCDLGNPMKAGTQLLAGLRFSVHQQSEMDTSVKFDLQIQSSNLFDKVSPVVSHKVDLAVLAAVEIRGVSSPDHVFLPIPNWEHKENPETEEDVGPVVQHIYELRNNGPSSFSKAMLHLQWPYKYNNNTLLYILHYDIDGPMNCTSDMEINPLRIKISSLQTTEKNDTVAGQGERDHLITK
T1 sequence (P06756 891-1048 partner limits assumed): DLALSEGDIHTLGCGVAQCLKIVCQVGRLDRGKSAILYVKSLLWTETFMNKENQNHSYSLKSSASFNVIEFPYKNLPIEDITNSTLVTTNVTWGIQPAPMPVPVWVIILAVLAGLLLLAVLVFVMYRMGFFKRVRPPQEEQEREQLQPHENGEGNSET
T1 sequence (P05106 27-788): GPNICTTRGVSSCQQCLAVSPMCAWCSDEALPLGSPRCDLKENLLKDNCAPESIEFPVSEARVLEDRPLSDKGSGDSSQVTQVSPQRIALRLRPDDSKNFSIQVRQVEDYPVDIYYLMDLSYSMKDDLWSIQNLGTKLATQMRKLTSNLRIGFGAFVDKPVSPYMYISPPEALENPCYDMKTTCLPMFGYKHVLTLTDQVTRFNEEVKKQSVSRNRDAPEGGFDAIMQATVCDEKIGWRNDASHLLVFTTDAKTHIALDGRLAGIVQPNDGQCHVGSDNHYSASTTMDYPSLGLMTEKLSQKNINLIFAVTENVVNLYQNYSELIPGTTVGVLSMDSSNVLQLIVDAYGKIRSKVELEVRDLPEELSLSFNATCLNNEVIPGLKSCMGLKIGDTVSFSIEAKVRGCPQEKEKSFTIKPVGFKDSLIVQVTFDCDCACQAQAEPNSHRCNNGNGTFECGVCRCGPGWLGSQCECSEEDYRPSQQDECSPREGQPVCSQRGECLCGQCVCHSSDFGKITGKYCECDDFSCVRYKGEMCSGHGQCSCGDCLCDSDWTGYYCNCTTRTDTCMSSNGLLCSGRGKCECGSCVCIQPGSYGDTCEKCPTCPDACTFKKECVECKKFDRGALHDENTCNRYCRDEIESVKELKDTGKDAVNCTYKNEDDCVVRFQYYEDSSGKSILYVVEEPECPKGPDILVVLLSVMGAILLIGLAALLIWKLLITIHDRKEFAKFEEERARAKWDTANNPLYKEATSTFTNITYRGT
T2 sequence (P06756 31-889 limits assumed): as the sequence (P06756 31-889 limits assumed) above
T2 sequence (P06756 891-1048 partner limits assumed): as the sequence (P06756 891-1048 partner limits assumed) above
T2 sequence (P18084 24-799): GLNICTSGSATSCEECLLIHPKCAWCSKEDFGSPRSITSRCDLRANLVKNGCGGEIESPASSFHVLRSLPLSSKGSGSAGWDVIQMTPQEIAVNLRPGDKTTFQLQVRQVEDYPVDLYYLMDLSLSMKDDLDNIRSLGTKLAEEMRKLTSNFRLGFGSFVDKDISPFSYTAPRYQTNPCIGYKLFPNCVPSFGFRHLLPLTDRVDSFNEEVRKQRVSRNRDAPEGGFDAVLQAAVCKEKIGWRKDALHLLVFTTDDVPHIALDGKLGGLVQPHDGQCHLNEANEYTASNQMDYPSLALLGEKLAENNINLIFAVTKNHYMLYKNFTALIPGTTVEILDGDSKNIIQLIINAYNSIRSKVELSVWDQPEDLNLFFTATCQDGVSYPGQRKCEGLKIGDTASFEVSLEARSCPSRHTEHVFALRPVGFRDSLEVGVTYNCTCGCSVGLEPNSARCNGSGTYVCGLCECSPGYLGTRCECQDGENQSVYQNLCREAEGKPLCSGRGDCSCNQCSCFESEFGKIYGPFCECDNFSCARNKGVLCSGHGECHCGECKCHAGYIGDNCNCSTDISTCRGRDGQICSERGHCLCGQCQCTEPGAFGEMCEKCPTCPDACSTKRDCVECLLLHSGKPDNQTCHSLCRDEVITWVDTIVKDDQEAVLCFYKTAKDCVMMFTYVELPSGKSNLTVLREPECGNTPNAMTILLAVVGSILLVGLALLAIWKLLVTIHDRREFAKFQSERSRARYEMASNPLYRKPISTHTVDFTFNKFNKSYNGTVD
GP IIb/IIIa, sequence (P08514 32-887 limits assumed): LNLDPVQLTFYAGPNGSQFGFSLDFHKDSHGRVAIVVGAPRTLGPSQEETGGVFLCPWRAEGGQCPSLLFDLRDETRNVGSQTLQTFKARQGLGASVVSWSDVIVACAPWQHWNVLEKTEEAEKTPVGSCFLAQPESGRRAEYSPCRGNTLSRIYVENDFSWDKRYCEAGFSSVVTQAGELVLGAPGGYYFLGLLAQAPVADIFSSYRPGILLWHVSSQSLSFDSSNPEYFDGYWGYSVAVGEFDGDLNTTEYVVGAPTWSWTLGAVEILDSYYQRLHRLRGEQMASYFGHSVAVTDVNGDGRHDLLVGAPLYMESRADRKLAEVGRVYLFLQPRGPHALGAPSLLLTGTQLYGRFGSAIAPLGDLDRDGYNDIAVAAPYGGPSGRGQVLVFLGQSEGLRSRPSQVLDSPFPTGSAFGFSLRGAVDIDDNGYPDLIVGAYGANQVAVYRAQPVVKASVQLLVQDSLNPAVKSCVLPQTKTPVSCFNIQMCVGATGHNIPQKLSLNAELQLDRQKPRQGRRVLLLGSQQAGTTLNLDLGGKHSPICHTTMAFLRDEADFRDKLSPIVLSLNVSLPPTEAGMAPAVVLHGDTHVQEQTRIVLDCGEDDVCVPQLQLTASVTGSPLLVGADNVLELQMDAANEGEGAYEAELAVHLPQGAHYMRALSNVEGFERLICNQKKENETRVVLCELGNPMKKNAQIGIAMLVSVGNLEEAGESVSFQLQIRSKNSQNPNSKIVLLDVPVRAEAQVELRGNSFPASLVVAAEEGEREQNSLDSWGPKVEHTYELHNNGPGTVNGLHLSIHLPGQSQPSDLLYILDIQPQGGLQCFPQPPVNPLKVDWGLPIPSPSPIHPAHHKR
GP IIb/IIIa, sequence (P08514 891-1039 partner limits assumed): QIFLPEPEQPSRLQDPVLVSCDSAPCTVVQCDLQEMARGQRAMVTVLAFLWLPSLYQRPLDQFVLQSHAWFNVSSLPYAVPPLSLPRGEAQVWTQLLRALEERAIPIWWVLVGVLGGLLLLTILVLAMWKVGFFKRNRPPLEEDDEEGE
GP IIb/IIIa, sequence (P05106 27-788): as the sequence (P05106 27-788) above

Compound | IC50 (Human αvβ3) | IC50 (human purified αVβ5) | IC50 (GP IIb/IIIa)
O=C(O)CC(CCC1CCN(C(=O)c2cccc(NC3=NCCCN3)c2)CC1)c1cnc2ccccc2c1 (stereo not drawn) [Cpd 12, β-[2-[1-[3-[(1,4,5,6-Tetrahydro-2-pyrimidinyl)amino]benzoyl]-4-piperidinyl]ethyl]-3-quinolinepropanoic acid] | 4.2 ± 1.4 nM | 78 ± 17 nM | 136 ± 3 nM
O=C(O)CC(CC1CCN(C(=O)CCCc2ccc3c(n2)NCCC3)CC1)c1ccc2c(c1)OCO2 (stereo not drawn) [Cpd 26, β-(1,3-benzodioxol-5-yl)-1-[1-oxo-4-(5,6,7,8-tetrahydro-1,8-naphthyridin-2-yl)butyl]-4-piperidinebutanoic acid] | 27.7 ± 5.3 nM | 500 nM | 5920 nM
COc1cccc(C(CC(=O)O)CC2CCN(C(=O)CCc3ccc4c(n3)NCCC4)CC2)c1 (racemic) [Cpd 59] | 2.6 ± 1.4 nM | 9.6 ± 3.8 nM | 7800 ± 4670 nM
CCCCCCCCOC(=O)CCCC1CCN(C(=O)CCc2ccc3c(n2)NCCC3)CC1 [Cpd 71, 4-[1-(3-5,6,7,8-Tetrahydro-[1,8]naphthyridin-2-yl-propionyl)-piperidin-4-yl]-butyric acid octyl ester] | > 500 nM | > 1000 nM | > 50000 nM

The next molecules have a lower IC50 (Human αvβ3) than those just listed; values first:

IC50 (Human αvβ3) | IC50 (human purified αVβ5) | IC50 (GP IIb/IIIa) | Compound
1.8 ± 0.8 nM | 7 ± 0.8 nM | 10200 ± 6410 nM | O=C(O)CC(CC1CCN(C(=O)CCc2ccc3c(n2)NCCC3)CC1)c1cccs1 (racemic) [Cpd 63]
0.5 ± 0.2 nM | 26.5 ± 3.4 nM | 14700 nM | O=C(O)CC(CC1CCN(C(=O)CCc2ccc3c(n2)NCCC3)CC1)c1ccc2ccccc2c1 (single isomer, unassigned) [Cpd 56a, 3-Naphthalen-2-yl-4-[1-(3-5,6,7,8-tetrahydro-[1,8]naphthyridin-2-yl-propionyl)-piperidin-4-yl]-butyric acid]
